According to ChEMBL document CHEMBL5608196, “1,3,5-Triazine as a promising scaffold in the development of therapeutic agents against breast cancer” (Eur J Med Chem, 2024):
One block for each compound: values may come before it.

Assays:
[1] = target: T1, Epidermal growth factor receptor (Homo sapiens, UniProt P00533); assay: Inhibition of EGFR (unknown origin) using Poly (Glu, Tyr) as substrate at 10 uM incubated for 40 mins in presence of ATP by Kinase-Glo Plus luminescence kinase assay relative to control
T1 sequence (P00533 whole entry): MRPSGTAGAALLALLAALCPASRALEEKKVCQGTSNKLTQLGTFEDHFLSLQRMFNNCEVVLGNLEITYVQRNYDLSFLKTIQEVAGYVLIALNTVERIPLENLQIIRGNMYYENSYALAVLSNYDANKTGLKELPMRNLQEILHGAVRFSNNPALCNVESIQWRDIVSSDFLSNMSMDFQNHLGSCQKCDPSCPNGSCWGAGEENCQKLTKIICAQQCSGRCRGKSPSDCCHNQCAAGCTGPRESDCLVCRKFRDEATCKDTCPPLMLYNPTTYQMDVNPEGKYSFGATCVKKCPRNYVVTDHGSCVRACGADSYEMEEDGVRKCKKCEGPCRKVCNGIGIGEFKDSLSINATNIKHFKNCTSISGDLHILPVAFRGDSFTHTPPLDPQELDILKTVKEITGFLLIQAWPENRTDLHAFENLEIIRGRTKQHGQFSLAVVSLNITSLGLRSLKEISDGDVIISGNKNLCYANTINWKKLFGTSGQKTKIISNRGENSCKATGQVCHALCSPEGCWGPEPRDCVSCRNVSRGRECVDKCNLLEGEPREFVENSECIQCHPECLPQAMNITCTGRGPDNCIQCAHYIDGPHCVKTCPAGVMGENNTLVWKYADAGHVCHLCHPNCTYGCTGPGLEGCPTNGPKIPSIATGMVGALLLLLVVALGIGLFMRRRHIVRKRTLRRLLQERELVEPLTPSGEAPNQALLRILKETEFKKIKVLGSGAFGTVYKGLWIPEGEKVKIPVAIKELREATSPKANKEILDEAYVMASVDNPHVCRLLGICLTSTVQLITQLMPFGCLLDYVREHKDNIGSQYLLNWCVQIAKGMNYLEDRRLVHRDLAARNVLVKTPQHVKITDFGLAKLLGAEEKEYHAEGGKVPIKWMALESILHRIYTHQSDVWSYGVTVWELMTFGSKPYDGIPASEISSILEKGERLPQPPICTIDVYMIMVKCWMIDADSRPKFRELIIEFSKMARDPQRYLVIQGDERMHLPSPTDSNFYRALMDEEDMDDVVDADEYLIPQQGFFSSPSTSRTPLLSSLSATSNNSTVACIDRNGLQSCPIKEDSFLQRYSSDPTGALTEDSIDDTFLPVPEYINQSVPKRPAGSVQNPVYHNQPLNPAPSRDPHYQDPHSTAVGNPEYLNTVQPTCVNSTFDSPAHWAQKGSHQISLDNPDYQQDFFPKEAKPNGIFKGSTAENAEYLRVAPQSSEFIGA

[2] = tested on: MCF7; assay: Anticancer activity against human MCF7 cells incubated for 48 hrs by MTT assay; conditions: MCF7, 48 h
[3] = tested on: MCF7; assay: Anticancer activity against human MCF7 cells; assay type: functional, cell-based
[4] = tested on: MCF7; assay: Anti-proliferative activity against human MCF7 cells by MTT assay; assay type: functional, cell-based
[5] = tested on: MDA-MB-231; assay: Antiproliferative activity against human MDA-MB-231 cells; assay type: functional, cell-based
[6] = tested on: MCF7; assay: Anticancer activity against human MCF7 cells incubated for 24 to 72 hrs by MTT assay; assay type: functional, cell-based
[7] = tested on: MDA-MB-231; assay: Cytotoxicity against human MDA-MB-231 cells incubated for 72 hrs by MTT assay; assay type: functional, cell-based; conditions: MDA-MB-231, 72 h
[8] = tested on: MCF7; assay: Cytotoxicity against human MCF7 cells assessed as cell growth inhibition incubated for 72 hrs by MTT assay; assay type: functional, cell-based; conditions: MCF7, 72 h
[9] = tested on: MCF7; assay: Anti-cancer activity against human MCF7 cells; assay type: functional, cell-based
[10] = tested on: MCF7; assay: Anticancer activity against human MCF7 cells incubated for 24 hrs by MTT assay; assay type: functional, cell-based; conditions: MCF7, 24 h
[11] = target: Serine/threonine-protein kinase mTOR (Homo sapiens, UniProt P42345); assay: Inhibition of mTOR (unknown origin)
[12] = tested on: MCF7; assay: Antitumor activity against human MCF7 cells by MTT assay
[13] = target: T2, Phosphatidylinositol 4,5-bisphosphate 3-kinase catalytic subunit alpha isoform (Homo sapiens, UniProt P42336); assay: Inhibition of PI3K-alpha (unknown origin)
T2 sequence (P42336 whole entry, canonical isoform): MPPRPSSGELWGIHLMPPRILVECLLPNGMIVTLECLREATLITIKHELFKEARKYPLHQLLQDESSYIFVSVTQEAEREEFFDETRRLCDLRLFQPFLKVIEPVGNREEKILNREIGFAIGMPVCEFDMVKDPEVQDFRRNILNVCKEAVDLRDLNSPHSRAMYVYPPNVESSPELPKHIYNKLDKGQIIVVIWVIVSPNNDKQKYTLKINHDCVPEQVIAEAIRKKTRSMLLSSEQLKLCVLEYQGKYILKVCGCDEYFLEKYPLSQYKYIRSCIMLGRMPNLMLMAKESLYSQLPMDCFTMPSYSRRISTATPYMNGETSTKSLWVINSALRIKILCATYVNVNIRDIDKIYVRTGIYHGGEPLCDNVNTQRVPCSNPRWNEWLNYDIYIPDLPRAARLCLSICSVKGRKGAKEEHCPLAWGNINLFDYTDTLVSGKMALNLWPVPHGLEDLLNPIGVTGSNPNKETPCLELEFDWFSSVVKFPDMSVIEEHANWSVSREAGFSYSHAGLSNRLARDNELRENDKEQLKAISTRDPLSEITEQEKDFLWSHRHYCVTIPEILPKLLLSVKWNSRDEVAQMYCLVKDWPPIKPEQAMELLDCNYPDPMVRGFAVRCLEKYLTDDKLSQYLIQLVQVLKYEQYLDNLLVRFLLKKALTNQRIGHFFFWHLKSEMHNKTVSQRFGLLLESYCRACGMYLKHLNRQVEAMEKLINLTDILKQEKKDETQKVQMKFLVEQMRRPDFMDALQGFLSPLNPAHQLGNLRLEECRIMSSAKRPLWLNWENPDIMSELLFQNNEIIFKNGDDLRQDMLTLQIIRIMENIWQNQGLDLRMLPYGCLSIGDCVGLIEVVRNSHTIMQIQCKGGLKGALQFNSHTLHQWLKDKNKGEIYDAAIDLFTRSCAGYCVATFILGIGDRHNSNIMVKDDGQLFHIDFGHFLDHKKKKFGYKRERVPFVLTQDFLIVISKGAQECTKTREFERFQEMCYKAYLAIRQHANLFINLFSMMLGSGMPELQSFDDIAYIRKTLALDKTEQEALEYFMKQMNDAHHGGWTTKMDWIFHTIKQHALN

[14] = target: T2, Phosphatidylinositol 4,5-bisphosphate 3-kinase catalytic subunit alpha isoform; assay: Inhibition of PI3K-alpha (unknown origin) at 100 uM relative to control
[15] = tested on: MCF7; assay: Inhibition of cell proliferation of human MCF7 cells incubated for 24 hrs by MTT assay; assay type: functional, cell-based; conditions: MCF7, 24 h
[16] = tested on: MDA-MB-231; assay: Inhibition of cell proliferation of human MDA-MB-231 cells incubated for 24 hrs by MTT assay; assay type: functional, cell-based; conditions: MDA-MB-231, 24 h
[17] = target: T1, Epidermal growth factor receptor; assay: Inhibition of EGFR (unknown origin) by ELISA
[18] = tested on: MCF7; assay: Inhibition of cell viability in human MCF7 cells incubated for 48 hrs by MTT assay; assay type: functional, cell-based; conditions: MCF7, 48 h
[19] = target: Carbonic anhydrase 9 (Homo sapiens, UniProt Q16790); assay: Inhibition of human CA-IX
[20] = target: T1, Epidermal growth factor receptor; assay: Inhibition of EGFR (unknown origin)
[21] = tested on: MDA-MB-468; assay: Anticancer activity against human MDA-MB-468 cells assessed as cell growth inhibition under hypoxia incubated for 48 hrs by SRB assay relative to control; assay type: functional
[22] = tested on: MDA-MB-468; assay: Anticancer activity against human MDA-MB-468 cells assessed as cell growth inhibition incubated for 48 hrs by SRB assay; assay type: functional, cell-based; conditions: MDA-MB-468, 48 h
[23] = Inhibition of PI3K (unknown origin); parameters: species or system Homo sapiens
[24] = tested on: MCF7; assay: Anti-proliferative activity against human MCF7 cells incubated for 72 hrs by MTT assay; assay type: functional, cell-based; conditions: MCF7, 72 h
[25] = tested on: MDA-MB-231; assay: Inhibition of cell survival in human MDA-MB-231 cells incubated for 72 hrs by MTT assay; assay type: functional, cell-based; conditions: MDA-MB-231, 72 h
[26] = tested on: MDA-MB-468; assay: Anticancer activity against human MDA-MB-468 cells assessed as cell growth inhibition under normoxia at 10 uM incubated for 48 hrs by SRB assay relative to control; assay type: functional; conditions: read-out: GI
[27] = tested on: MCF7; assay: Cytotoxicity against human MCF7 cells

inhibition [1]: 96.3% | IC50 [2]: 52200 nM
SMILES: O=[N+]([O-])c1ccc(Nc2nc(NC(=S)NNc3ccnc4ccccc34)nc(Nc3ccc([N+](=O)[O-])cc3)n2)cc1

IC50 [3]: 2930 nM
SMILES: COc1ccc(Nc2nc(N3CCOCC3)nc(-n3nc(C)cc3C)n2)cc1

IC50 [4]: 4630 nM
SMILES: NCc1ccc(-c2nc(N/N=C/c3ccc(Br)cc3)nc(N3CCCCC3)n2)cc1

IC50 [5]: 23100 nM
SMILES: CC1CCN(c2nc(Cl)nc(Oc3ccc(-c4coc5cc(Oc6nc(Cl)nc(N7CCC(C)CC7)n6)cc(O)c5c4=O)cc3)n2)CC1

IC50 [2]: 17200 nM
SMILES: Cc1nc2cc(Br)c(Br)cc2c(=O)n1-c1ccc(Nc2nc(N3CCCCC3)nc(N3CCOCC3)n2)cc1

IC50 [6]: 9540 nM
SMILES: Cc1nc2ccc(Br)cc2c(=O)n1Nc1nc(Nc2ccc([N+](=O)[O-])cc2)nc(N2CCNCC2)n1

IC50 [3]: 2290 nM
SMILES: CC1=NN(c2nc(Nc3ccc(Cl)cc3)nc(-n3nc(C)cc3C)n2)C(C)C1 (stereo unspecified)

SMILES: COc1ccc(/C=N/NC(=O)Nc2ccc(-c3nc(N4CCOCC4)nc(N4CCOCC4)n3)cc2)cc1
IC50 [7]: 520 nM

IC50 [6]: 9520 nM
SMILES: CNc1nc(Nn2c(C)nc3ccc(Br)cc3c2=O)nc(N2CCNCC2)n1

IC50 [4]: 3980 nM
SMILES: COc1nc(N/N=C/c2ccccc2)nc(-c2ccc(N)cc2)n1

SMILES: CN(C)c1ccc(-c2nc(N)nc(Nc3ccccc3F)n2)cc1
IC50 [8]: > 20000 nM

IC50 [9]: 1340 nM
SMILES: COc1nc(OC)nc(-c2nc(-c3nnc(-c4cc([N+](=O)[O-])cc([N+](=O)[O-])c4)o3)co2)n1

IC50 [10]: 41500 nM | inhibition [1]: 96.4%
SMILES: CCOC(=O)C1=CN(c2nc(Nc3cccc(F)c3)nc(Nc3cccc(F)c3)n2)C(=S)NC1c1ccc(F)cc1 (stereo unspecified)

IC50 [11]: 48 nM | IC50 [12]: 1250 nM
SMILES: CS(=O)(=O)N1CCN(Cc2ccc(-c3nc(-c4cnc(N)nc4)nc(N4CCOCC4)n3)s2)CC1

IC50 [13]: 60 nM
SMILES: CN(C)C(=O)C1CCC(Oc2nc(-c3cccc4[nH]ncc34)nc(N3CCOCC3)n2)CC1 (stereo unspecified)

inhibition [14]: 68% | IC50 [3]: > 100000 nM
SMILES: CCN(CC)c1nc(Nc2ccc(S(=O)(=O)NC(=N)N)cc2)nc(NN2CCOCC2)n1

IC50 [15]: 4290 nM | IC50 [16]: 7800 nM
SMILES: COc1nc(Nc2ccc(C#N)cc2)nc(N2CCOCC2)n1

IC50 [3]: 17500 nM
SMILES: CCN(CC)c1nc(Nc2ccccc2)nc(Nc2ccc(S(=O)(=O)NC(=N)N)cc2)n1

IC50 [9]: 95 nM
SMILES: COc1nc(OC)nc(-c2nc(-c3nnc(-c4cc([N+](=O)[O-])c(Br)c([N+](=O)[O-])c4)o3)co2)n1

IC50 [6]: 7160 nM
SMILES: Cc1nc2ccc(Br)cc2c(=O)n1Nc1nc(Nc2cccc(Cl)c2)nc(N2CCNCC2)n1

IC50 [17]: 287 nM | IC50 [18]: 12.8 nM
SMILES: CN(C)c1nc(Cl)nc(NC2=NN(c3ccc(Br)cc3)C(c3ccc(C(F)(F)F)cc3)C2)n1 (stereo unspecified)

IC50 [9]: 25 nM
SMILES: COc1nc(OC)nc(-c2nc(-c3nnc(-c4cc(OC)c(OC)c(OC)c4)o3)co2)n1

SMILES: Cc1cc(/C=N/NC(=O)Nc2ccc(-c3nc(N4CCOCC4)nc(N4CCOCC4)n3)cc2)cc(C)c1O
IC50 [7]: 400 nM

IC50 [3]: 3760 nM
SMILES: COc1ccc(Nc2nc(N3CCCC3)nc(-n3nc(C)cc3C)n2)cc1

IC50 [17]: 229 nM | IC50 [18]: 70.7 nM
SMILES: CN(C)c1nc(Cl)nc(NC2=NN(c3ccc(C(F)(F)F)cc3)C(c3ccc(C(F)(F)F)cc3)C2)n1 (stereo unspecified)

Ki [19]: 0.4 nM
SMILES: NS(=O)(=O)c1ccc(CNc2nc(Cl)nc(Nc3ccc(O)cc3)n2)cc1

inhibition [1]: 90.5% | IC50 [2]: 32300 nM
SMILES: CCN(CC)c1nc(NC(=S)NNc2ccnc3ccccc23)nc(N(CC)CC)n1

IC50 [3]: 2660 nM
SMILES: CC1=NN(c2nc(Nc3ccc(Br)cc3)nc(-n3nc(C)cc3C)n2)C(C)C1 (stereo unspecified)

IC50 [11]: 69 nM | IC50 [12]: 2650 nM
SMILES: Nc1ncc(-c2nc(-c3ccc(CN4CCOCC4)s3)nc(N3CCOCC3)n2)cn1

IC50 [20]: 61 nM | IC50 [3]: 4530 nM
SMILES: Cc1cc(C)n(-c2nc(Nc3ccc(Br)cc3)nc(N3CCOCC3)n2)n1

IC50 [22]: 1480 nM
SMILES: N#C/C(=C\c1cccc(F)c1)c1nc(N)nc(Nc2ccc(S(N)(=O)=O)cc2)n1
growth inhibition (GI) [21]: 65%

IC50 [15]: 770 nM | IC50 [16]: 8430 nM
SMILES: COc1nc(Nc2ccc(C#N)cc2)nc(-c2ccc(N)cc2)n1

IC50 [23]: 37 nM
SMILES: FC(F)c1nc2ccccc2n1-c1nc(N2CCOCC2)nc(N2CCOCC2)n1 [ZSTK-474]

IC50 [24]: 3290 nM
SMILES: NCc1ccc(-c2nc(N/N=C/c3ccc(Cl)cc3)nc(N3CCCCC3)n2)cc1

IC50 [2]: 18400 nM
SMILES: Cc1nc2cc(Br)c(Br)cc2c(=O)n1-c1ccc(Nc2nc(Nc3ccc(Cl)cc3)nc(N3CCCCC3)n2)cc1

IC50 [2]: 17800 nM
SMILES: Cc1nc2cc(Br)c(Br)cc2c(=O)n1-c1ccc(Nc2nc(Nc3ccc(Br)cc3)nc(N3CCCCC3)n2)cc1

IC50 [9]: 110 nM
SMILES: COc1cc(OC)cc(-c2nnc(-c3coc(-c4nc(OC)nc(OC)n4)n3)o2)c1

IC50 [10]: 47400 nM | inhibition [1]: 94.3%
SMILES: CCOC(=O)C1=CN(c2nc(Nc3cccc(F)c3)nc(Nc3cccc(F)c3)n2)C(=S)NC1c1ccccc1OC (stereo unspecified)

IC50 [3]: 18400 nM
SMILES: CCN(CC)c1nc(Nc2ccc(S(=O)(=O)NC(=N)N)cc2)nc(NC2CCCCC2)n1

SMILES: COc1cc(-c2nc(N)nc(Nc3ccc(C)cc3)n2)cc(OC)c1OC
IC50 [8]: > 20000 nM

SMILES: C=CCc1cc(C)cc(/C=N/NC(=O)Nc2ccc(-c3nc(N4CCOCC4)nc(N4CCOCC4)n3)cc2)c1O
IC50 [7]: 600 nM

SMILES: Nc1nc(COC(=O)c2ccc([N+](=O)[O-])cc2)nc(Nc2ccccc2)n1
IC50 [25]: 6000 nM

IC50 [24]: 1000 nM
SMILES: C(=N\Nc1nc(N2CCOCC2)nc(N2CCOCC2)n1)/c1ccccc1

IC50 [22]: 1480 nM
SMILES: CN(C)c1ccc(/C=C(\C#N)c2nc(N)nc(Nc3ccc(S(N)(=O)=O)cc3)n2)cc1
growth inhibition (GI) [21]: 60% | inhibition of growth at 10 µM [26]: 62%

IC50 [11]: 10.9 nM
SMILES: CNC(=O)Nc1ncc(-c2nc(-c3ccc(CN4CCN(S(C)(=O)=O)CC4)s3)nc(N3CCOCC3)n2)cn1
IC50 [27]: 30 nM
